Data reported in patent publication US20050282911A1, “Memantine for the prevention or reduction of suicidality and for treatment of major depression associated with suicidality” (priority 2003, published 2005).
Entries after “also recorded” stand apart in the source; their conditions may differ.

Tests used:
[1] = tested on: patients with major depressive disorder (MDD); test: Open-label 12-week study of memantine in MDD (MEM-MD-09): safety and adverse events; assay type: in vivo, human
Experimental: Study Design. The study was designed as a single-center, open-label, flexible dose 12-week study. Memantine was to be administered at 20 mg/day (10 mg b.i.d.) (titrated over a 4 week period), and, if warranted, up-titrated to a maximum of 40 mg/day (20 mg b.i.d.) (titrated in increments of 10 mg/day after Week 4).
Drug Treatment. All eight patients were initially given 5 mg/day and titrated over a 3-week period to a minimum dose of 20 mg/day. Patients with an unsatisfactory therapeutic response (CGI-I score greater than 2) could increase to a maximum of 40 mg/day (2 patients, 30 mg/day and 40 mg/day, respectively). One patient was titrated to 30 mg/day after Week 8, and […] after Week 10. The mean treatment duration was 82 days (range: 57-86 days) and the mean daily dose was 18.1 mg/day.
Safety. Safety was assessed throughout the course of the study by monitoring vital signs and spontaneously reported adverse events.

[2] = tested on: patients with depression of Alzheimer's disease; test: Study MEM-MD-17: memantine in depression of Alzheimer's disease, suicide items of CSDD, MADRS, HAMD; assay type: in vivo, human; design: key to Change from Baseline in CSDD item #16 (suicide item): change in item score; 0=absent, 1=mild to intermittent, 2=severe; Change from Baseline in MADRS item #10 (suicide item) / Change from Baseline in HAMD item #3 (suicide item): scale not given here
Experimental: The objective of this study (MEM-MD-17) was to evaluate the safety and efficacy of memantine and memantine in combination with escitalopram in patients with depression of Alzheimer's disease.
The clinical study was conducted in two phases —12-weeks of open-label treatment with memantine (MEM) followed by 12-weeks of randomized double-blind treatment with memantine+placebo (MEM+PBO) or memantine+escitalopram (MEM+SCT).
Study design. Patients were started on memantine 5 mg/day which was increased to 10 mg/day at end of Week 1. The dose could be further increased to a maximum of 20 mg/day in patients with inadequate response in weekly increments of 5 mg. At end of Week 12, patients were randomized to one of the two treatment groups: MEM+PBO or MEM+SCT. The dose of memantine during the double-blind treatment period was fixed at the same level as at the end of Week 12 and the dose of escitalopram was fixed at 10 mg. Dose adjustments during the double-blind period were not permitted.
Patient Population. A total of 15 patients were enrolled in 2 sites. Three of the 15 patients discontinued during the open-label phase. The remaining 12 were randomized to double-blind treatment, 5 in the MEM+PBO treatment group, and 7 in the MEM+SCT treatment group. A total of 10 patients completed the study.
Endpoints. Several rating scales were used to assess efficacy for depression. The Cornell Scale for Depression in Dementia (CSDD); the HAMD; and the MADRS. The HAMD and MADRS have been described above.
CSDD. This is a […] scale which is subdivided into five sections: (A) Mood-Related Signs (questions 1-4); (B) Behavioral Disturbances (questions 5-8); (C) Physical Signs (questions 9-11); (D) Cyclic Functions (questions 12-15); and (E) Ideational Disturbances (questions 16-19). Question 16 is explicitly directed to suicidal ideation. The scoring system ranges from a=unable to evaluate; 0=absent; 1=mild to intermittent; and 2=severe.
Statistics. The efficacy analyses were based on the ITT population using both last observation carried forward (LOCF) and observed cases (OC) approaches. For each of the parameters, descriptive statistics were presented for the actual values and change from baseline by visit. For categorical variables, frequency distributions were presented.

[3] = cited from earlier work

Structure (SMILES): CC12CC3CC(C)(C1)CC(N)(C3)C2.Cl [Memantine, 1-amino-3,5-dimethyladamantane hydrochloride]
- clinical laboratory parameters, vital signs or ECG values ([1]; 20-40 mg/day, 12 weeks): no safety findings of concern
- deaths, serious adverse events, discontinuations due to adverse events ([1]; 20-40 mg/day, 12 weeks): No deaths, serious adverse events or discontinuations due to adverse events
- safety and tolerability ([1]; 20-40 mg/day, 12 weeks): safe and well tolerated
- Number of Patients Reporting TEAE: Amnesia ([1]; Safety Population, N = 8): 2 patients
- Number of Patients Reporting TEAE: Anxiety ([1]; Safety Population, N = 8): 2 patients
- Number of Patients Reporting TEAE: Dizziness ([1]; Safety Population, N = 8): 2 patients
- Number of Patients Reporting TEAE: Headache ([1]; Safety Population, N = 8): 2 patients
- Number of Patients Reporting TEAE: Influenza-like Symptoms ([1]; Safety Population, N = 8): 2 patients
- Number of Patients Reporting TEAE: Insomnia ([1]; Safety Population, N = 8): 2 patients
- Number of Patients Reporting TEAE: Patients with at least one TEAE ([1]; Safety Population, N = 8): 8 patients
- Number of Patients Reporting TEAE: Somnolence ([1]; Safety Population, N = 8): 3 patients
- Change from Baseline in CSDD item #16 (suicide item) ([2]; Week 12, ITT Population, N = 5 who received memantine throughout, baseline 0.4): −0.4
- Change from Baseline in HAMD item #3 (suicide item) ([2]; Week 12, ITT Population, N = 5 who received memantine throughout, baseline 0.8): −0.8
- Change from Baseline in MADRS item #10 (suicide item) ([2]; Week 12, ITT Population, N = 5 who received memantine throughout, baseline 1.0): −1.0
- Change from Baseline in CSDD item #16 (suicide item) ([2]; Week 12, LOCF, ITT Population, N = 15, baseline 0.4): −0.3
- Change from Baseline in HAMD item #3 (suicide item) ([2]; Week 12, LOCF, ITT Population, N = 15, baseline 0.5): −0.5
- Change from Baseline in MADRS item #10 (suicide item) ([2]; Week 12, LOCF, ITT Population, N = 15, baseline 0.9): −0.6
- Change from Baseline in CSDD item #16 (suicide item) ([2]; Week 24, ITT Population, N = 5 who received memantine throughout, baseline 0.4): −0.3
- Change from Baseline in HAMD item #3 (suicide item) ([2]; Week 24, ITT Population, N = 5 who received memantine throughout, baseline 0.8): −0.5
- Change from Baseline in MADRS item #10 (suicide item) ([2]; Week 24, ITT Population, N = 5 who received memantine throughout, baseline 1.0): −0.5
- suicidality as measured by 3 different depression rating instruments ([2]; change from Baseline at Weeks 12 and 24, hydrochloride): modest but consistent numerical improvement in suicidality; also recorded: trend towards reduced suicidal thoughts and ideation
- solubility in aqueous media [3]: highly soluble
